Assay results published in patent publication US9028856B2, “Synergistic pesticide compositions” (priority 2008, dated 2015).

Tests used:
Format in all cases: in vivo
[1] = tested on: Aedes aegypti mosquito; experiment: USDA Petri Dish Method, 3 min exposure to treated glazed tile
In short: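 USDA Petri Dish screen: groups of twenty female Aedes aegypti (4-6 days old) held 3 minutes on dried acetone-based treatments (with/without adjuvant), then transferred to untreated card. Replicated three or more times; knockdown followed over time, mortality recorded 24 hours post-exposure with sucrose-soaked cotton available.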

[2] = tested on: Odorous House ant, Tapinoma sessile; experiment: Knockdown/mortality of ant workers under continuous exposure on treated glazed tile
In short: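 Each tile surface (about 5″×5″) was treated, left to dry overnight and tested in a minimum of three replicates.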

[3] = tested on: tropical house mosquito Culex quinquefasciatus (adults, 3 days old); experiment: Efficacy of formulations on surfaces (glazed/unglazed tiles, plywood), ten 3 day old mosquitoes, 3 min exposure; conditions: EC formulation, 3 minutes exposure
In short: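 Test agents in acetone, 1 ml pipetted onto 15×15 cm glazed tiles (plywood/unglazed tiles also used; 1 cm edge untreated). USDA Petri Dish Method: ten 3-day-old adults held 3 min under a perforated dish, then given a water-soaked cotton pad. Knock-down scored 3 min–4 h, mortality at 24 h; mean of three batches.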

[4] = Table 56, Aedes aegypti, glazed tile, 3 min exposure
[5] = 0.02% = 10 mg Ethiprole/m^2 on glazed tiles
[6] = 0.1% = 50 mg Bendiocarb/m^2 on glazed tiles
[7] = 0.1% = 50 mg imidacloprid/m^2 on glazed tiles
[8] = Table 48, fipronil/adjuvant in acetone, glazed tile, 3 min exposure
[9] = 30 min, Table 51, fipronil/adjuvant in acetone, glazed tile
[10] = 60 min, Table 51, fipronil/adjuvant in acetone, glazed tile
[11] = 2 hr, Table 51, fipronil/adjuvant in acetone, glazed tile
[12] = Table 51, fipronil/adjuvant in acetone, glazed tile

`CC[S+]([O-])c1c(C#N)nn(-c2c(Cl)cc(C(F)(F)F)cc2Cl)c1N` (stereo not drawn) [Ethiprole (1%)] was tested. Which “Average % Knockdown & Mortality after 4 hr” value [1, 4] did it give?
Its value is 17%.

And the “Average % Knockdown & Mortality after 6 hr” value [1, 4]?
Its value is 27%.

What about the “Average % Knockdown & Mortality after 24 hr” value [1, 4] of the same compound?
Its value is 46%.

What about the “Average % Knockdown & Mortality after 2 hr” value ([1]; Table 56, Aedes aegypti, glazed tile, 3 min exposure, adjuvant = Compound A 1% + Compound B 0.5%, 2 hr) of the same compound?
The value was 2%.

And the “Average % Knockdown & Mortality after 30 min” value ([2]; Table 59, Odorous House ant, glazed tile, continuous exposure, 30 min)?
The value was 0%.

What about the “Average % Knockdown & Mortality after 45 min” value ([2]; Table 59, Odorous House ant, glazed tile, continuous exposure, 45 min) of the same compound?
Its value is 0%.

And the “Average % Knockdown & Mortality after 60 min” value ([2]; Table 59, Odorous House ant, glazed tile, continuous exposure, 60 min)?
The value was 3%.

What about the “Average % Knockdown & Mortality after 2 hr” value ([2]; Table 59, Odorous House ant, glazed tile, continuous exposure, 2 hr) of the same compound?
The value was 7%.

And the “Average % Knockdown & Mortality after 15 min” value ([2]; Table 59, Odorous House ant, glazed tile, continuous exposure, adjuvant = Compound A 1% + Compound B 0.5%, 15 min)?
Its value is 0%.

Which results are given for `CC[S+]([O-])c1c(C#N)nn(-c2c(Cl)cc(C(F)(F)F)cc2Cl)c1N` (stereo not drawn) [ethiprole]?
mortality rate (peak / increased over time), FIG. 50 ([1]; ethiprole 0.01% AI with or without adjuvant): 15-18%; mortality in 2 hours ([2]; ethiprole 0.01% in the absence of the adjuvant (FIG. 53)): around 4%; % KD and Mortality 15′ [3, 5]: 0%; % KD and Mortality 30′ [3, 5]: 0%; % KD and Mortality 1 h [3, 5]: 0%; % KD and Mortality 2 h [3, 5]: 10%; % KD and Mortality 3 h [3, 5]: 10%; % KD and Mortality 4 h [3, 5]: 10%; % KD and Mortality 6 h [3, 5]: 10%; % KD and Mortality 24 h [3, 5]: 60%

Which results are given for `CNC(=O)Oc1cccc2c1OC(C)(C)O2` [bendiocarb]?
toxicity / efficacy of the substance alone (summary in words) ([2]; odorous house ant, glazed tile): no KD/mortality; % KD and Mortality 15′ [3, 6]: 0%; % KD and Mortality 30′ [3, 6]: 0%; % KD and Mortality 1 h [3, 6]: 80%; % KD and Mortality 2 h [3, 6]: 100%; % KD and Mortality 3 h [3, 6]: 100%; % KD and Mortality 4 h [3, 6]: 100%; % KD and Mortality 6 h [3, 6]: 100%; % KD and Mortality 24 h [3, 6]: 100%

With `O=[N+]([O-])NC1=NCCN1Cc1ccc(Cl)nc1` [imidacloprid] as the compound, how does the “% KD and Mortality 15′” value [3, 7] read?
The value was 0%.

And the “% KD and Mortality 30′” value [3, 7]?
The value was 0%.

And the “% KD and Mortality 1 h” value [3, 7]?
Its value is 0%.

And the “% KD and Mortality 2 h” value [3, 7]?
The value was 10%.

And the “% KD and Mortality 3 h” value [3, 7]?
The value was 20%.

What about the “% KD and Mortality 4 h” value [3, 7] of the same compound?
Its value is 20%.

What about the “% KD and Mortality 6 h” value [3, 7] of the same compound?
The value was 20%.

What about the “% KD and Mortality 24 h” value [3, 7] of the same compound?
The value was 100%.

What does the source list for `N#Cc1nn(-c2c(Cl)cc(C(F)(F)F)cc2Cl)c(N)c1[S+]([O-])C(F)(F)F` (stereo not drawn) [Fipronil (.01%)]?
Average % Knockdown & Mortality after 15 min [1, 8]: 5%; Average % Knockdown & Mortality after 30 min [1, 8]: 6%; Average % Knockdown & Mortality after 60 min [1, 8]: 19%; Average % Knockdown & Mortality after 4 hr [1, 8]: 42%; Average % Knockdown & Mortality after 6 hr [1, 8]: 56%; Average % Knockdown & Mortality after 24 hr [1, 8]: 72%; Average % Mortality after 30 min [2, 9]: 0%; Average % Mortality after 60 min [2, 10]: 0%; Average % Mortality after 2 hr [2, 11]: 6%; Average % Mortality after 24 hr [2, 12]: 100%

`CC1(C)[C@H](C(=O)O[C@H](C#N)c2cccc(Oc3ccccc3)c2)[C@@H]1C=C(Br)Br` [deltamethrin (1%)] was tested. Which “Average % Mortality after 20 min” value ([2]; 20 min, Table 30, aqueous deltamethrin/adjuvant, glazed tile) did it give?
Its value is 43%.

And the “Average % Mortality after 60 min” value ([2]; 60 min, Table 30, aqueous deltamethrin/adjuvant, glazed tile)?
The value was 80%.

What about the “Average % Mortality after 90 min” value ([2]; 90 min, Table 30, aqueous deltamethrin/adjuvant, glazed tile) of the same compound?
Its value is 90%.

And the “Average % Mortality after 2 hr” value ([2]; 2 hr, Table 30, aqueous deltamethrin/adjuvant, glazed tile)?
Its value is 93%.

For `N#Cc1nn(-c2c(Cl)cc(C(F)(F)F)cc2Cl)c(N)c1[S+]([O-])C(F)(F)F` (stereo not drawn) [Fipronil (.001%)], which “Average % Knockdown & Mortality after 15 min” value [1, 8] is on record?
Its value is 0%.

What about the “Average % Knockdown & Mortality after 30 min” value [1, 8] of the same compound?
The value was 0%.

And the “Average % Knockdown & Mortality after 60 min” value [1, 8]?
Its value is 0%.

And the “Average % Knockdown & Mortality after 4 hr” value [1, 8]?
Its value is 0%.

What about the “Average % Knockdown & Mortality after 6 hr” value [1, 8] of the same compound?
Its value is 3%.

What about the “Average % Knockdown & Mortality after 24 hr” value [1, 8] of the same compound?
Its value is 3%.

And the “Average % Mortality after 30 min” value [2, 9]?
Its value is 0%.

What about the “Average % Mortality after 60 min” value [2, 10] of the same compound?
Its value is 0%.

And the “Average % Mortality after 2 hr” value [2, 11]?
Its value is 0%.

And the “Average % Mortality after 24 hr” value [2, 12]?
The value was 100%.
